Consider 1 compound from ChEMBL document CHEMBL1671737, “Impact of recA on levofloxacin exposure-related resistance development” (2010).

Experiment [1] concerns Staphylococcus aureus. Nature of the experiment: Bactericidal activity against recA-deficient Staphylococcus aureus ASAU022 assessed as induction of increase bacterial kill rate at 2 times MIC by time kill study. In kind it is functional, organism-based.
Experiment [2] relates to Staphylococcus aureus. Nature of the experiment: Antimicrobial activity against recA-deficient Staphylococcus aureus ASAU022 after 24 hrs by modified broth macrodilution method. Particulars: ASAU022, 24 h.
Experiment [3] relates to Staphylococcus aureus. Put plainly: Antimicrobial activity against recA-deficient Staphylococcus aureus ASAU022 infected in in vitro hollow fiber infection model assessed as suppression of microbial resistance at AUC/MIC ratio of >23. In kind it is functional, organism-based.
The subject of experiment [4] is Staphylococcus aureus. Nature of the experiment: Antimicrobial activity against methicillin-resistant Staphylococcus aureus ASAU021 infected in in vitro hollow fiber infection model assessed as suppression of microbial resistance at AUC/MIC ratio of >32. In kind it is functional, organism-based.
Experiment [5] concerns Staphylococcus aureus. Put plainly: Antimicrobial activity against recA-deficient Staphylococcus aureus ASAU022 infected in in vitro hollow fiber infection model assessed as suppression of microbial resistance at AUC/MIC ratio of 31. In kind it is functional, organism-based.
Experiment [6] relates to Staphylococcus aureus. Put plainly: Antimicrobial activity against methicillin-resistant Staphylococcus aureus ASAU021 after 24 hrs by modified broth macrodilution method. The conditions noted are these: ASAU021, 24 h.
The test system of experiment [7] is Staphylococcus aureus. Nature of the experiment: Bactericidal activity against recA-deficient Staphylococcus aureus ASAU022 assessed as induction of slow growth rate at 0.5 times MIC by time kill study. In kind it is functional, organism-based.
A further experiment deals with Escherichia coli. Nature of the experiment: Antimicrobial activity against recA-deficient Escherichia coli MG1655 after 24 hrs by modified broth macrodilution method. In kind it is functional. The conditions noted are these: MG1655, 24 h.

Active and inactive are the calls of the source. The rule behind the calls is not given here.

On to `C[C@H]1COc2c(N3CCN(C)CC3)c(F)cc3c(=O)c(C(=O)O)cn1c23.C[C@H]1COc2c(N3CCN(C)CC3)c(F)cc3c(=O)c(C(=O)O)cn1c23.O` [LEVOFLOXACIN], for which the inhibition result in the experiment with Staphylococcus aureus [1] and in the experiment with Staphylococcus aureus [7] was “Active” throughout. Besides, the figures for the minimum inhibitory concentration (MIC) against Staphylococcus aureus [2], in the experiment on Staphylococcus aureus [6] and against Escherichia coli were 0.25 mg/L, 1 mg/L and 0.004 mg/L, respectively. The outcome with Staphylococcus aureus [3], in the experiment with Staphylococcus aureus [4] and with Staphylococcus aureus [5] was Active.
